Results as given in patent publication US11013249B2, “Compositions for controlled release of volatile compounds” (University of Guelph, priority 2016, dated 2021).
Converted amounts (≈) assume the structure as drawn. Read-outs that look alike come from different tables or passages of the source.

How the values were obtained:
[1] = cited from earlier work
[2] = cited from earlier work; remark: listed apart in the source
[3] = Release of diacetyl and AITC vapours from PEG blends into jar headspace (automatic headspace sampling, GC); type: physicochemical; conditions: from 4:1 PEG400:PEG10K
Description: PEG400 and PEG10K were blended at 1:4, 2:3, 3:2 and 4:1 (w/w) ratios. All PEG blends (20±1 g) were heated to 90° C. in a 20 mL glass vial for 20 min to ensure the polymers were melted and thoroughly mixed with the aid of a magnetic stir bar. […] The vials were capped, kept in a 75° C. oven and continuously being stirred with the magnetic stir bar for 15 min. The molten mixtures were injected into a mould fabricated from glass (2 cm×1.5 cm×0.1 cm) and allowed to set. One face of the mould was lined with aluminum tape (adhesive side facing away from PEG), which acted as a baking material for the solidified PEG. Upon solidification, diacetyl/AITC impregnated PEG sheeting was formed.
With the aid of a controller (SRI Instruments Inc., Las Vegas, Nev., USA), the headspace air in the glass jar was sampled automatically by means of a vacuum pump and two stream selection valves (Model EMTCA-CE, VICI Valco Instruments Co. Inc., Houston, Texax, USA), and injected into a gas chromatograph equipped with flame ionization detector (GC 6890, Agilent Technologies Inc., Santa Clara, Calif., USA.). Both the detector and oven temperatures were set at 150° C. The flow rates of the carrier gas (N2), compressed air and hydrogen were 30 mL/min, 200 mL/min and 30 mL/min, respectively. Retention time and peak area were analyzed by using chromatographic software (Peak Simple 393-32 bit, SRI Instruments, Torrance, Calif., USA). After each sampling, an equal amount of dry air was injected back into the jar to maintain the interior pressure at one atmosphere.
Diacetyl or AITC release profiles were generated by plotting Mn versus time.
The release profiles of the antimicrobial compounds were fitted in a model which combines first order kinetics and zero order kinetics: C=Ce×(1−e^−kt)+αt (Eq. 3) where C is the compound concentration at time t; Ce is the equilibrium concentration for diffusion; k is the diffusion rate constant; α is the rate of zero order kinetics. Models are fitted to the data before reaching the equilibrium.

P. Fluorescens = test: Inhibitory effects of AITC, diacetyl and cinnamaldehyde vapour; type: cell-based, Pseudomonas fluorescens P33; conditions: 25° C.
Description: (§1) P. fluorescens was selected as a model spoilage bacteria, while mould and yeast were isolated from spoiled mung bean sprouts with bacteria excluded by cultivating in potato dextrose broth (PDB) (Sigma, Oakville, ON, Canada) at pH 5.6±0.2. Yeast and P. fluorescens stocks were cultivated in PDB and trypticase soy broth (TSB) (Bacto, BD, Sparks, USA), respectively, at 30° C. for 24 h and diluted with sterile saline solution (NaCl, 8.5 g/L water) to a concentration of 10^6 CFU/mL. An aliquot of 50 μL of the prepared yeast or bacteria suspension was spread on potato dextrose agar (PDA) (Difco, BD, Sparks, USA) or trypticase soy agar (TSA) (Bacto, BD, Sparks, USA), respectively, in 5 cm diameter petri dishes (Fisher Scientific, Ottawa, ON, Canada). Mycelium of mould was inoculated as one spot at the center of the PDA dishes. Two freshly inoculated petri dishes of same microorganism, with their lids removed, were placed in a one-liter glass jar. […] The growth of the microorganisms was monitored by the colony formation for 3 days.

Yeast = test: as above; type: cell-based, yeast isolated from mung bean sprouts
Description: as §1

Mould = test: as above; type: cell-based, mould isolated from mung bean sprouts; conditions: 25° C.
Description: as §1

[4] = Amount 1 mg in one-liter jar, 25° C.
[5] = Amount 2 mg in one-liter jar, 25° C.
[6] = Amount 3 mg in one-liter jar, 25° C.

For `Cc1ccc(C(C)C)cc1O` [carvacrol, 5-isopropyl-2-methylphenol], the “solubility in water” value [1] is listed as “low solubility in water”, the vapor pressure ([2]; 22° C.) is listed as 0.0042 kPa and the vapor pressure ([2]; 25° C.) is listed as 0.0087 kPa.
Compound `CC(=O)C(C)=O` [Diacetyl, 2,3-butanedione] has a Ce ([3]; 0 μL water, 5° C.) of 0.631 mg/L, a k ([3]; 0 μL water, 5° C.) of 0.00764 h⁻¹ and a α ([3]; 0 μL water, 5° C.) of 0.000149 h⁻¹. It also gave a Ce ([3]; 0 μL water, 25° C.) of 1.965 mg/L, a k ([3]; 0 μL water, 25° C.) of 0.00837 h⁻¹ and a α ([3]; 0 μL water, 25° C.) of 0.000258 h⁻¹. The “maximum released after 42 h” value ([3]; 5° C.) was 1.98 mg, the Ce ([3]; 10 μL water, 5° C.) was 1.074 mg/L and the k ([3]; 10 μL water, 5° C.) was 0.00484 h⁻¹. For the same compound, the α ([3]; 10 μL water, 5° C.) was 0.000236 h⁻¹, the Ce ([3]; 10 μL water, 25° C.) was 1.701 mg/L and the k ([3]; 10 μL water, 25° C.) was 0.01425 h⁻¹. For the same compound, the α ([3]; 10 μL water, 25° C.) was 0.00034 h⁻¹, the “maximum released after 42 h” value ([3]; 25° C.) was 2.85 mg and the Ce ([3]; 100 μL water, 5° C.) was 1.418 mg/L. The k ([3]; 100 μL water, 5° C.) was 0.00159 h⁻¹, the α ([3]; 100 μL water, 5° C.) was 0.000253 h⁻¹ and the Ce ([3]; 100 μL water, 25° C.) was 1.901 mg/L. For the same compound, the k ([3]; 100 μL water, 25° C.) was 0.01281 h⁻¹, the α ([3]; 100 μL water, 25° C.) was 0.000272 h⁻¹ and the Ce ([3]; 1000 μL water, 5° C.) was 0.151 mg/L. For the same compound, the k ([3]; 1000 μL water, 5° C.) was 0.01321 h⁻¹, the α ([3]; 1000 μL water, 5° C.) was 0.000301 h⁻¹ and the Ce ([3]; 1000 μL water, 25° C.) was 2.156 mg/L. The k ([3]; 1000 μL water, 25° C.) was 0.00728 h⁻¹, the α ([3]; 1000 μL water, 25° C.) was 0.000279 h⁻¹ and the “P. Fluorescens day1, visual colony number” value (P. Fluorescens; Amount 1 mg in one-liter jar) was “+ (less than 15)”. For the same compound, the “P. Fluorescens day2, visual colony number” value (P. Fluorescens; Amount 1 mg in one-liter jar) was “+ (less than 15)”, the “effective concentration against P. fluorescens” value (P. Fluorescens; vapour in one-liter jar) was 2 mg/L and the “Yeast day1, visual colony number” value (Yeast; [4]) was “+ (less than 15)”. The “Yeast day2, visual colony number” value (Yeast; [4]) was “+ (less than 15)”, the “Yeast day3, visual colony number” value (Yeast; [4]) was “+ (less than 15)” and the “Yeast day1, visual colony number” value (Yeast; [5]) was “+ (less than 15)”. For the same compound, the “Yeast day2, visual colony number” value (Yeast; [5]) was “+ (less than 15)”, the “Yeast day3, visual colony number” value (Yeast; [5]) was “+ (less than 15)” and the “Yeast day2, visual colony number” value (Yeast; [6]) was “+ (less than 15)”. For the same compound, the “Yeast day3, visual colony number” value (Yeast; [6]) was “+ (less than 15)”, the MIC (Yeast; established on yeast, mould and P. fluorescens from Table 8, read-out: minimum inhibition concentration (MIC)) was 4 µg/mL (≈ 46.5 µM) and the “effective concentration against yeast” value (Yeast; vapour in one-liter jar, 25° C.) was 4 mg/L. For the same compound, the “Mould day1, visual colony number” value (Mould; Amount 1 mg in one-liter jar) was “+ (less than 15)”, the “Mould day2, visual colony number” value (Mould; Amount 1 mg in one-liter jar) was “+ (less than 15)” and the “Mould day3, visual colony number” value (Mould; Amount 1 mg in one-liter jar) was “+ (less than 15)”. The “concentration that inhibited the growth of mould for three days” value (Mould; vapour in one-liter jar) was 2 mg/L, the Saturated vapor pressure ([2]; 5° C.) was ~2400 Pa and the “vapor pressure (volatility)” value ([2]; 20° C.) was 6.9 kPa. The Saturated vapor pressure ([2]; 45° C.) was ~20100 Pa.
